Assay results from patent US20180057507A1, “INHIBITORS OF DUAL LEUCINE ZIPPER (DLK) KINASE FOR THE TREATMENT OF DISEASE” (Board of Regents, The University of Texas System, priority 2016, published 2018).
pKd: −log10 of the molar value.

Molecular target: T1, human DLK (Homo sapiens, UniProt Q12852)
T1 sequence (Q12852 1-859): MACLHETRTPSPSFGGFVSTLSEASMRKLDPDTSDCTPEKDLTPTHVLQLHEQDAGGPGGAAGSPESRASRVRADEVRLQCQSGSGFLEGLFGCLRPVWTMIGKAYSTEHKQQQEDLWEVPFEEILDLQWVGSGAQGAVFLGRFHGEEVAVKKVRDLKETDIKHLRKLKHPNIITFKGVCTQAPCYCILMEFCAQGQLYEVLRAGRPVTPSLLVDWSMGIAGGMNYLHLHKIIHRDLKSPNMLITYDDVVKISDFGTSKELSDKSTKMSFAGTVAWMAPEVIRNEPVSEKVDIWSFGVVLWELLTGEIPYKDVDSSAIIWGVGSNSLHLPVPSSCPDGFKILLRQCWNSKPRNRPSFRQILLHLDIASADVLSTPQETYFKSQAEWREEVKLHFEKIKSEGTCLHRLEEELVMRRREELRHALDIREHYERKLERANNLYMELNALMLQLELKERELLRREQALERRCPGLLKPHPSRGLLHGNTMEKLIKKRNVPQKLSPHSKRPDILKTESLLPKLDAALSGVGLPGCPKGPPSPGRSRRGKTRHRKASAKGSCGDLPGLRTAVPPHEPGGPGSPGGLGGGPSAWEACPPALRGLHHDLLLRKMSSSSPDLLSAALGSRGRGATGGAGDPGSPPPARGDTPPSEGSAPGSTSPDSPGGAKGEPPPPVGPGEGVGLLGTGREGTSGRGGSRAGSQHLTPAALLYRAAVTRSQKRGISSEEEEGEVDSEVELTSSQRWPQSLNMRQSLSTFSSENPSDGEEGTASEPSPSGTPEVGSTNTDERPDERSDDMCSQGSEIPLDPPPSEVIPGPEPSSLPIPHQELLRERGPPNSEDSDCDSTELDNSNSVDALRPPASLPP
Experiment: DLK Kd Determinations (KINOMEscan KdELECT, DiscoveRx)
Parameters: full length of human DLK (amino acids 1-859); host or cells: transiently transfected HEK293 cells; unpurified extract
Details: fusion protein of full length human DLK (amino acids 1-859) and NFkB DNA binding domain; qPCR readout; duplicate
Protocol: The DLK dissociation constants (Kd) have been determined in the KINOMEscan KdELECT Service at DiscoveRx.
A fusion protein of full length of human DLK (amino acids 1-859) and the DNA binding domain of NFkB was expressed in transiently transfected HEK293 cells. From these HEK 293 cells, extracts were prepared in M-PER extraction buffer (Pierce) in the presence of Protease Inhibitor Cocktail Complete (Roche) and Phosphatase Inhibitor Cocktail Set II (Merck) per manufacturers' instructions. The DLK fusion protein was labeled with a chimeric double-stranded DNA tag containing the NFkB binding site (5′-GGGAATTCCC-3′) fused to an amplicon for qPCR readout, which was added directly to the expression extract (the final concentration of DNA-tag in the binding reaction is 0.1 nM).
Streptavidin-coated magnetic beads (Dynal M280) were treated with a biotinylated small molecule ligand for 30 minutes at room temperature to generate affinity resins the binding assays. The liganded beads were blocked with excess biotin and washed with blocking buffer (SeaBlock (Pierce), 1% BSA, 0.05% Tween 20, 1 mM DTT) to remove unbound ligand and to reduce nonspecific binding.
Extracts were used directly in binding assays without any enzyme purification steps at a ≧10,000-fold overall stock dilution (final DNA-tagged enzyme concentration <0.1 nM). Extracts were loaded with DNA-tag and diluted into the binding reaction in a two step process. First extracts were diluted 1:100 in 1× binding buffer (PBS/0.05% Tween 20/10 mM DTT/0.1% BSA/2 μg/ml sonicated salmon sperm DNA) containing 10 nM DNA-tag. This dilution was allowed to equilibrate at room temperature for 15 minutes and then subsequently diluted 1:100 in 1× binding buffer. Test compounds were prepared as 111× stocks in 100% DMSO. Kds were determined using an 11-point 3-fold compound dilution series with three DMSO control points. All compounds for Kd measurements are distributed by acoustic transfer (non-contact dispensing) in 100% DMSO. The compounds were then diluted directly into the assays such that the final concentration of DMSO was 0.9%. All reactions performed in polypropylene 384-well plates. Each was a final volume of 0.02 mL. Assays were incubated with shaking for 1 hour at room temperature. Then the beads were pelleted and washed with wash buffer (1×PBS, 0.05% Tween 20) to remove displaced kinase and test compound. The washed based were re-suspended in elution buffer (1×PBS, 0.05% Tween 20, 0.5 μM non-biotinylated affinity ligand) and incubated at room temperature with shaking for 30 minutes. The kinase concentration in the eluates was measured by qPCR. qPCR reactions were assembled by adding 2.5 μL of kinase eluate to 7.5 μL of qPCR master mix containing 0.15 μM amplicon primers and 0.15 μM amplicon probe. The qPCR protocol consisted of a 10 minute hot start at 95° C., followed by 35 cycles of 95° C. for 15 seconds, 60° C. for 1 minute.
Test compounds were prepared as 111× stocks in 100% DMSO. Kds were determined using an 11-point 3-fold compound dilution series with three DMSO control points. All compounds for Kd measurements are distributed by acoustic transfer (non-contact dispensing) in 100% DMSO. The compounds were then diluted directly into the assays such that the final concentration of DMSO was 0.9%. The Kds were determined using a compound top concentration of 30,000 nM. Kd measurements were performed in duplicate.
Binding constants (Kds) were calculated with a standard dose-response curve using the Hill equation: […]
The Hill Slope was set to −1. Curves were fitted using a non-linear least square fit with the Levenberg-Marquardt algorithm (Levenberg, K., A method for the solution of certain non-linear problems in least squares, Q. Appl. Math. 2, 164-168 (1944)). See also Fabian, M. A. et al. A small molecule-kinase interaction map for clinical kinase inhibitors. Nat. Biotechnol. […]

Row | SMILES | pKd
1 | CC1OCCn2cc(-c3cnc(N)c(C(F)(F)F)c3)nc21 (stereo not drawn) [Example 5, 5-(8-methyl-6,8-dihydro-5H-imidazo[2,1-c][1,4]oxazin-2-yl)-3-(trifluoromethyl)pyridin-2-amine] | 5.48
2 | Nc1ncc(-c2cn(C3CC3)c(C3CC3)n2)cc1C(F)(F)F [Example 9, 5-(1,2-dicyclopropyl-1H-imidazol-4-yl)-3-(trifluoromethyl)pyridin-2-amine] | 6.62
3 | Nc1ncc(-c2cn3c(n2)COCC3)cc1C(F)(F)F [Example 10, 5-(5,6-dihydro-8H-imidazo[2,1-c][1,4]oxazin-2-yl)-3-(trifluoromethyl)pyridin-2-amine] | 6.08
4 | CC(C)c1nc(-c2cnc(N)c(C(F)(F)F)c2)cn1[C@H]1[C@@H]2CN(CC(F)(F)F)C[C@@H]21 [Example 18, 5-(2-isopropyl-1-((1R,5S,6s)-3-(2,2,2-trifluoroethyl)-3-azabicyclo[3.1.0]hexan-6-yl)-1H-imidazol-4-yl)-3-(trifluoromethyl)pyridin-2-amine] | 6.14
5 | CC(C)c1nc(-c2cnc(N)c(C(F)(F)F)c2)cn1C [Example 21, 5-(2-isopropyl-1-methyl-1H-imidazol-4-yl)-3-(trifluoromethyl)pyridin-2-amine] | 6.19
6 | CC(C)c1nc(-c2cnc(N)c(C(F)(F)F)c2)cn1[C@H]1C[C@@H](F)C1 [Example 24, 5-(1-((1s,3s)-3-fluorocyclobutyl)-2-isopropyl-1H-imidazol-4-yl)-3-(trifluoromethyl)pyridin-2-amine] | 6.62
7 | CC(C)c1nc(-c2cnc(N)c(C(F)(F)F)c2)cn1C1CC(F)(F)C1 [Example 26, 5-(1-(3,3-difluorocyclobutyl)-2-isopropyl-1H-imidazol-4-yl)-3-(trifluoromethyl)pyridin-2-amine] | 6.40
8 | CC(C)c1nc(-c2cnc(N)c(C(F)(F)F)c2)cn1C1CN(C2COC2)C1 [Example 27, 5-(2-isopropyl-1-(1-(oxetan-3-yl)azetidin-3-yl)-1H-imidazol-4-yl)-3-(trifluoromethyl)pyridin-2-amine] | 6.57
9 | CC(C)c1nc(-c2cnc(N)c(C(F)(F)F)c2)cn1C1CCCC1 [Example 28, 5-(1-cyclopentyl-2-isopropyl-1H-imidazol-4-yl)-3-(trifluoromethyl)pyridin-2-amine] | 6.66

Further compounds by rising pKd, results first:

Row | pKd | SMILES
10 | 6.66 | CC(C)c1nc(-c2cnc(N)c(C(F)(F)F)c2)cn1C1CC2(COC2)C1 [Example 23, 5-(2-isopropyl-1-(2-oxaspiro[3.3]heptan-6-yl)-1H-imidazol-4-yl)-3-(trifluoromethyl)pyridin-2-amine]
11 | 6.68 | COCCN1C[C@@H]2[C@H](C1)[C@H]2n1cc(-c2cnc(N)c(C(F)(F)F)c2)nc1C(C)C [Example 15, 5-(2-isopropyl-1-((1R,5S,6s)-3-(2-methoxyethyl)-3-azabicyclo[3.1.0]hexan-6-yl)-1H-imidazol-4-yl)-3-(trifluoromethyl)pyridin-2-amine]
12 | 6.70 | CC(C)c1nc(-c2cnc(N)c(C(F)(F)F)c2)cn1[C@H]1C[C@H](F)C1 [Example 25, 5-(1-((1r,3r)-3-fluorocyclobutyl)-2-isopropyl-1H-imidazol-4-yl)-3-(trifluoromethyl)pyridin-2-amine]
13 | 6.77 | CC(=O)N1C[C@@H]2[C@H](C1)[C@H]2n1cc(-c2cnc(N)c(C(F)(F)F)c2)nc1C(C)C [Example 14, 1-(6-(4-(6-amino-5-(trifluoromethyl)pyridin-3-yl)-2-isopropyl-1H-imidazol-1-yl)-3-azabicyclo[3.1.0]hexan-3-yl)ethan-1-one]
14 | 6.77 | CC(C)c1nc(-c2cnc(N)c(C(F)(F)F)c2)cn1[C@H]1[C@@H]2CN(CC(F)F)C[C@@H]21 [Example 17, 5-(1-((1R,5S,6s)-3-(2,2-difluoroethyl)-3-azabicyclo[3.1.0]hexan-6-yl)-2-isopropyl-1H-imidazol-4-yl)-3-(trifluoromethyl)pyridin-2-amine]
15 | 6.85 | Nc1ncc(-c2cn(CC3CC3)c([C@H]3[C@@H]4CN(C5COC5)C[C@@H]43)n2)cc1C(F)(F)F [Example 1, 5-(1-(cyclopropylmethyl)-2-((1R,5S,6r)-3-(oxetan-3-yl)-3-azabicyclo[3.1.0]hexan-6-yl)-1H-imidazol-4-yl)-3-(trifluoromethyl)pyridin-2-amine]
16 | 6.89 | CC(C)n1cc(-c2cnc(N)c(C(F)(F)F)c2)nc1C1CC1 [Example 8, 5-[2-cyclopropyl-1-(propan-2-yl)-1H-imidazol-4-yl]-3-(trifluoromethyl)pyridin-2-amine]
17 | 6.92 | CC(C)c1nc(-c2cnc(N)c(C(F)(F)F)c2)cn1[C@H]1[C@@H]2CNC[C@@H]21 [Example 11, 5-(1-(3-azabicyclo[3.1.0]hexan-6-yl)-2-isopropyl-1H-imidazol-4-yl)-3-(trifluoromethyl)pyridin-2-amine]
18 | 7.11 | CC(C)c1nc(-c2cnc(N)c(C(F)(F)F)c2)cn1[C@H]1[C@@H]2CN(C3CCOCC3)C[C@@H]21 [Example 13, 5-(2-isopropyl-1-((1R,5S,6s)-3-(tetrahydro-2H-pyran-4-yl)-3-azabicyclo[3.1.0]hexan-6-yl)-1H-imidazol-4-yl)-3-(trifluoromethyl)pyridin-2-amine]
19 | 7.17 | CC(C)c1nc(-c2cnc(N)c(C(F)(F)F)c2)cn1[C@H]1[C@@H]2CN(CCF)C[C@@H]21 [Example 16, 5-(1-((1R,5S,6s)-3-(2-fluoroethyl)-3-azabicyclo[3.1.0]hexan-6-yl)-2-isopropyl-1H-imidazol-4-yl)-3-(trifluoromethyl)pyridin-2-amine]
20 | 7.29 | CC(C)c1nc(-c2cnc(N)c(C(F)(F)F)c2)cn1[C@H]1[C@@H]2CC(N3CCOCC3)C[C@@H]21 (mixture of isomers) [Example 3, 5-(2-isopropyl-1-((1R,5S,6r)-3-morpholinobicyclo[3.1.0]hexan-6-yl)-1H-imidazol-4-yl)-3-(trifluoromethyl)pyridin-2-amine]
21 | 7.33 | CC(C)c1nc(-c2cnc(N)c(C(F)(F)F)c2)cn1[C@H]1[C@@H]2CN(C3COC3)C[C@@H]21 [Example 12, 5-(2-isopropyl-1-((1R,5S,6s)-3-(oxetan-3-yl)-3-azabicyclo[3.1.0]hexan-6-yl)-1H-imidazol-4-yl)-3-(trifluoromethyl)pyridin-2-amine]
